# PMC5781198 (Influenza and Other Respiratory Viruses, 2013)
# Entries after “also recorded” stand apart in the source; their conditions may differ.
# Key:
# [1] = test system: A/Alberta/RV1242/2011 NA (H275H/Y, D199D/N); format: biochemical, Influenza A(H1N1)pdm09 virus
# [2] = target: B/Bangladesh/8008/2011 NA (I120V) (Influenza B virus, UniProt P27907, I119V); format: biochemical, Influenza B virus (Victoria)
# [3] = test system: A/Vietnam/108/2011 NA (F174V); format: biochemical, Influenza A(H1N1)pdm09 virus
# [4] = test system: A/Santiago/15706/2011 NA (G460S); format: biochemical, Influenza A(H1N1)pdm09 virus
# [5] = test system: A/Bolivia/258/2011 NA (D199N); format: biochemical, Influenza A(H1N1)pdm09 virus
# [6] = test system: A/Bolivia/603/2011 NA (D151G); format: biochemical, Influenza A(H3N2) virus
# [7] = test system: B/Bangladesh/4013/2011 NA (A136S); format: biochemical, Influenza B virus (Victoria)
# [8] = test system: A/Dominican Republic/5507/2011 NA (S247N); format: biochemical, Influenza A(H1N1)pdm09 virus
# [9] = test system: B/British Columbia/RV1383/2011 NA (T106N); format: biochemical, Influenza B virus (Yamagata)
# [10] = target: B/Ontario/1256/2011 NA (G140R, N144K) (Influenza B virus, UniProt P27907, G140R/N143K); format: biochemical, Influenza B virus (Victoria)
# [11] = test system: A/Santiago/14689/2011 NA (N325K); format: biochemical, Influenza A(H1N1)pdm09 virus
# [12] = test system: B/Ontario/006876/2011 NA (H273Y); conditions: cited from earlier work
# [13] = target: B/Ontario/006876/2011 NA (H273Y) (Influenza B virus, UniProt P27907, H272Y); format: biochemical, Influenza B virus (Yamagata)
# [14] = target: B/Kenya/9528/2011 NA (M403V) (Influenza B virus, UniProt P27907, M402V); format: biochemical, Influenza B virus (Victoria)
# [15] = test system: A/Puerto Rico/05/2011 NA (D199N); format: biochemical, Influenza A(H1N1)pdm09 virus
# [16] = target: B/Dominican Republic/5506/2011 NA (H273Y) (Influenza B virus, UniProt P27907, H272Y); format: biochemical, Influenza B virus (Victoria)
# [17] = target: B/Guatemala/16/2011 NA (S244P) (Influenza B virus, UniProt P27907, S243P); format: biochemical, Influenza B virus (Victoria)
smiles,measurement,setting,value
"CCC(CC)[C@H](NC(C)=O)[C@@H]1[C@H](O)[C@@H](C(=O)O)C[C@H]1N=C(N)N [Peramivir, peramivir]",IC50 relative to isolate A/Puerto Rico/09/2011 (dominant H275Y),[1],approximately threefold less; also recorded: three times less resistant
same,fold difference in IC50,[2],4·36 (5) fold
same,fold difference in IC50,[3],0·06 (1) fold
same,fold difference in IC50,[4],0·26 (4) fold
same,fold difference in IC50,[5],0·09 (2) fold
same,fold difference in IC50,[6],0·08 (1) fold
same,fold difference in IC50,[7],4·77 (6) fold
same,fold difference in IC50,[8],0·15 (3) fold
same,fold difference in IC50,[9],0·85 (2) fold
same,fold difference in IC50,[10],210·68 (257) fold
same,fold greater IC50 than the mean IC50 for the drug for all B viruses,[10],277 fold
same,susceptibility in words,[10],significantly reduced susceptibility
same,susceptibility in words,[11],mildly reduced sensitivity
same,susceptibility in words,[12],reduced susceptibility
same,fold difference in IC50,[13],33·49 (62) fold
same,fold greater IC50 than the mean IC50 for the drug for all B viruses,[13],44 fold
same,fold difference in IC50,[14],3·59 (4) fold
same,fold difference in IC50,[15],0·21 (4) fold
same,fold difference in IC50,[16],12·43 (15) fold
same,fold greater IC50 than the mean IC50 for the drug for all B viruses,[16],16 fold
same,fold difference in IC50,[17],0·60 (1) fold
same,susceptibility in words,[17],sensitive
"CC(=O)N[C@H]1[C@H]([C@H](O)[C@H](O)CO)OC(C(=O)O)=C[C@@H]1N=C(N)N [Zanamivir, zanamivir]",susceptibility in words,[10],significantly reduced susceptibility
same,susceptibility in words,[11],mildly reduced sensitivity
same,susceptibility in words,[17],mild outlier
